The NIST ThermoML archive (doi:10.1021/je201334p)
Numbers after ± are expanded uncertainties.

Legend:
[1] = xn = mol fraction of the nth substance listed; details: 101 kPa, Liquid; for speed of sound: Sing-around technique in a fixed-path interferometer; for mass density: Vibrating tube method
[2] = refractive index (Na D-line) (dimensionless); xn = mol fraction of the nth substance listed; details: 101 kPa, Liquid, Standard Abbe refractometry

CCCCn1cc[n+](C)c1.O=S(=O)([O-])C(F)(F)F [1-butyl-3-methylimidazolium trifluoromethanesulfonate] + O
speed of sound ([1]; 288.15 K, x2 = 0): 1414.3 ± 1.4 m/s | speed of sound ([1]; 288.15 K, x2 = 0.1348): 1419.7 ± 1.3 m/s | speed of sound ([1]; 288.15 K, x2 = 0.2028): 1422.9 ± 1.2 m/s | speed of sound ([1]; 288.15 K, x2 = 0.2056): 1423.2 ± 1.2 m/s | speed of sound ([1]; 288.15 K, x2 = 0.3083): 1429.3 ± 1.2 m/s | speed of sound ([1]; 288.15 K, x2 = 0.4985): 1445 ± 1.1 m/s | speed of sound ([1]; 288.15 K, x2 = 0.6062): 1458 ± 1.1 m/s | speed of sound ([1]; 288.15 K, x2 = 0.7015): 1473.8 ± 1 m/s | speed of sound ([1]; 288.15 K, x2 = 0.8064): 1496.3 ± 1 m/s | speed of sound ([1]; 288.15 K, x2 = 0.8998): 1523.9 ± 1 m/s | speed of sound ([1]; 288.15 K, x2 = 0.9309): 1533.1 ± 1 m/s | speed of sound ([1]; 288.15 K, x2 = 0.9548): 1540 ± 1 m/s | mass density ([1]; 288.15 K, x2 = 0): 1307.5 ± 0.63 kg/m3 | mass density ([1]; 288.15 K, x2 = 0.1348): 1303.64 ± 0.53 kg/m3 | mass density ([1]; 288.15 K, x2 = 0.2028): 1301.3 ± 0.48 kg/m3 | mass density ([1]; 288.15 K, x2 = 0.2056): 1301.2 ± 0.48 kg/m3 | mass density ([1]; 288.15 K, x2 = 0.3083): 1296.7 ± 0.41 kg/m3 | mass density ([1]; 288.15 K, x2 = 0.4985): 1284.57 ± 0.31 kg/m3 | mass density ([1]; 288.15 K, x2 = 0.6062): 1273.42 ± 0.27 kg/m3 | mass density ([1]; 288.15 K, x2 = 0.7015): 1258.59 ± 0.23 kg/m3 | mass density ([1]; 288.15 K, x2 = 0.8064): 1231.3 ± 0.2 kg/m3 | mass density ([1]; 288.15 K, x2 = 0.8998): 1180.1 ± 0.16 kg/m3 | mass density ([1]; 288.15 K, x2 = 0.9309): 1149.84 ± 0.15 kg/m3 | mass density ([1]; 288.15 K, x2 = 0.9548): 1116.26 ± 0.15 kg/m3 | speed of sound ([1]; 298.15 K, x2 = 0): 1391.4 ± 1.4 m/s | speed of sound ([1]; 298.15 K, x2 = 0.1348): 1396.7 ± 1.3 m/s | speed of sound ([1]; 298.15 K, x2 = 0.2028): 1400.2 ± 1.2 m/s | speed of sound ([1]; 298.15 K, x2 = 0.2056): 1400.9 ± 1.2 m/s | speed of sound ([1]; 298.15 K, x2 = 0.3083): 1406.7 ± 1.2 m/s | speed of sound ([1]; 298.15 K, x2 = 0.4985): 1422.8 ± 1.1 m/s | speed of sound ([1]; 298.15 K, x2 = 0.6062): 1436.4 ± 1.1 m/s | speed of sound ([1]; 298.15 K, x2 = 0.7015): 1453.1 ± 1 m/s | speed of sound ([1]; 298.15 K, x2 = 0.8064): 1478.8 ± 1 m/s | speed of sound ([1]; 298.15 K, x2 = 0.8998): 1513.4 ± 1 m/s | speed of sound ([1]; 298.15 K, x2 = 0.9309): 1527.6 ± 1 m/s | speed of sound ([1]; 298.15 K, x2 = 0.9548): 1540.1 ± 1 m/s | mass density ([1]; 298.15 K, x2 = 0): 1299.55 ± 0.62 kg/m3 | mass density ([1]; 298.15 K, x2 = 0.1348): 1295.68 ± 0.52 kg/m3 | mass density ([1]; 298.15 K, x2 = 0.2028): 1293.3 ± 0.47 kg/m3 | mass density ([1]; 298.15 K, x2 = 0.2056): 1293.22 ± 0.47 kg/m3 | mass density ([1]; 298.15 K, x2 = 0.3083): 1288.66 ± 0.41 kg/m3 | mass density ([1]; 298.15 K, x2 = 0.4985): 1276.45 ± 0.31 kg/m3 | mass density ([1]; 298.15 K, x2 = 0.6062): 1265.25 ± 0.26 kg/m3 | mass density ([1]; 298.15 K, x2 = 0.7015): 1250.44 ± 0.23 kg/m3 | mass density ([1]; 298.15 K, x2 = 0.8064): 1223.33 ± 0.2 kg/m3 | mass density ([1]; 298.15 K, x2 = 0.8998): 1172.98 ± 0.16 kg/m3 | mass density ([1]; 298.15 K, x2 = 0.9309): 1143.39 ± 0.15 kg/m3 | mass density ([1]; 298.15 K, x2 = 0.9548): 1110.62 ± 0.15 kg/m3 | speed of sound ([1]; 308.15 K, x2 = 0): 1369.1 ± 1.4 m/s | speed of sound ([1]; 308.15 K, x2 = 0.1348): 1374.8 ± 1.3 m/s | speed of sound ([1]; 308.15 K, x2 = 0.2028): 1378.1 ± 1.2 m/s | speed of sound ([1]; 308.15 K, x2 = 0.2056): 1379.4 ± 1.2 m/s | speed of sound ([1]; 308.15 K, x2 = 0.3083): 1384.6 ± 1.2 m/s | speed of sound ([1]; 308.15 K, x2 = 0.4985): 1400.9 ± 1.1 m/s | speed of sound ([1]; 308.15 K, x2 = 0.6062): 1414.8 ± 1 m/s | speed of sound ([1]; 308.15 K, x2 = 0.7015): 1432 ± 1 m/s | speed of sound ([1]; 308.15 K, x2 = 0.8064): 1460 ± 1 m/s | speed of sound ([1]; 308.15 K, x2 = 0.8998): 1500.5 ± 1 m/s | speed of sound ([1]; 308.15 K, x2 = 0.9309): 1519.2 ± 1 m/s | speed of sound ([1]; 308.15 K, x2 = 0.9548): 1536.7 ± 1 m/s | mass density ([1]; 308.15 K, x2 = 0): 1291.62 ± 0.61 kg/m3 | mass density ([1]; 308.15 K, x2 = 0.1348): 1287.74 ± 0.51 kg/m3 | mass density ([1]; 308.15 K, x2 = 0.2028): 1285.33 ± 0.47 kg/m3 | mass density ([1]; 308.15 K, x2 = 0.2056): 1285.23 ± 0.46 kg/m3 | mass density ([1]; 308.15 K, x2 = 0.3083): 1280.65 ± 0.4 kg/m3 | mass density ([1]; 308.15 K, x2 = 0.4985): 1268.32 ± 0.31 kg/m3 | mass density ([1]; 308.15 K, x2 = 0.6062): 1257.08 ± 0.26 kg/m3 | mass density ([1]; 308.15 K, x2 = 0.7015): 1242.22 ± 0.23 kg/m3 | mass density ([1]; 308.15 K, x2 = 0.8064): 1215.23 ± 0.21 kg/m3 | mass density ([1]; 308.15 K, x2 = 0.8998): 1165.56 ± 0.16 kg/m3 | mass density ([1]; 308.15 K, x2 = 0.9309): 1136.56 ± 0.15 kg/m3 | mass density ([1]; 308.15 K, x2 = 0.9548): 1104.51 ± 0.16 kg/m3 | refractive index ([2]; 288.15 K, x2 = 0): 1.44032 ± 0.00053 | refractive index ([2]; 288.15 K, x2 = 0.1348): 1.43903 ± 0.00051 | refractive index ([2]; 288.15 K, x2 = 0.2028): 1.43815 ± 0.00051 | refractive index ([2]; 288.15 K, x2 = 0.2056): 1.4381 ± 0.00051 | refractive index ([2]; 288.15 K, x2 = 0.3083): 1.43654 ± 0.00049 | refractive index ([2]; 288.15 K, x2 = 0.4985): 1.43224 ± 0.00047 | refractive index ([2]; 288.15 K, x2 = 0.6062): 1.42835 ± 0.00047 | refractive index ([2]; 288.15 K, x2 = 0.7015): 1.42301 ± 0.00044 | refractive index ([2]; 288.15 K, x2 = 0.8064): 1.41332 ± 0.00041 | refractive index ([2]; 288.15 K, x2 = 0.8998): 1.39564 ± 0.0004 | refractive index ([2]; 288.15 K, x2 = 0.9309): 1.38516 ± 0.00041 | refractive index ([2]; 288.15 K, x2 = 0.9548): 1.37365 ± 0.00045 | refractive index ([2]; 298.15 K, x2 = 0): 1.43755 ± 0.00053 | refractive index ([2]; 298.15 K, x2 = 0.1348): 1.43626 ± 0.00052 | refractive index ([2]; 298.15 K, x2 = 0.2028): 1.43535 ± 0.00051 | refractive index ([2]; 298.15 K, x2 = 0.2056): 1.4353 ± 0.00051 | refractive index ([2]; 298.15 K, x2 = 0.3083): 1.43373 ± 0.00051 | refractive index ([2]; 298.15 K, x2 = 0.4985): 1.4294 ± 0.0005 | refractive index ([2]; 298.15 K, x2 = 0.6062): 1.42546 ± 0.0005 | refractive index ([2]; 298.15 K, x2 = 0.7015): 1.42021 ± 0.00049 | refractive index ([2]; 298.15 K, x2 = 0.8064): 1.41072 ± 0.00048 | refractive index ([2]; 298.15 K, x2 = 0.8998): 1.39323 ± 0.00046 | refractive index ([2]; 298.15 K, x2 = 0.9309): 1.3829 ± 0.00045 | refractive index ([2]; 298.15 K, x2 = 0.9548): 1.37157 ± 0.00045 | refractive index ([2]; 308.15 K, x2 = 0): 1.43475 ± 0.00053 | refractive index ([2]; 308.15 K, x2 = 0.1348): 1.43343 ± 0.00052 | refractive index ([2]; 308.15 K, x2 = 0.2028): 1.43259 ± 0.00051 | refractive index ([2]; 308.15 K, x2 = 0.2056): 1.43253 ± 0.00051 | refractive index ([2]; 308.15 K, x2 = 0.3083): 1.4309 ± 0.00053 | refractive index ([2]; 308.15 K, x2 = 0.4985): 1.42655 ± 0.00054 | refractive index ([2]; 308.15 K, x2 = 0.6062): 1.42268 ± 0.00053 | refractive index ([2]; 308.15 K, x2 = 0.7015): 1.41759 ± 0.00056 | refractive index ([2]; 308.15 K, x2 = 0.8064): 1.40803 ± 0.0007 | refractive index ([2]; 308.15 K, x2 = 0.8998): 1.39103 ± 0.00059 | refractive index ([2]; 308.15 K, x2 = 0.9309): 1.38091 ± 0.00052 | refractive index ([2]; 308.15 K, x2 = 0.9548): 1.36969 ± 0.0007
